# Key:
# HepG2 [1] = test: Cytotoxicity against human HepG2 cells; format: functional
# [2] = test system: Mycobacterium tuberculosis; format: functional, H37Rv; details: dose 100 mg/kg; time 8 weeks
# [3] = Kinetic solubility of the compound; format: physicochemical; details: read-out: Kinetic_solubility
# [4] = test system: Mycobacterium tuberculosis; format: functional, H37Rv; details: dose 200 mg/kg; time 8 day
# [5] = Cytotoxicity against African green monkey Vero cells assessed as reduction in cell viability by MTT assay; format: toxicity, cell-based; details: chlorocebus sabaeus
# [6] = Kinetic aqueous solubility of the compound incubated for 4.5 hrs by LC-MS/MS analysis; format: physicochemical; details: buffer, read-out: Kinetic_solubility
# [7] = Stability in mouse liver microsome assessed as half life by Reverse-phase HPLC analysis; format: ADME; details: liver microsomes
# [8] = target: Voltage-gated inwardly rectifying potassium channel KCNH2 (Homo sapiens, UniProt Q12809)
# [9] = test system: Mycobacterium tuberculosis; test: microbe, parasite or virus in culture; details: H37Rv
# Description: Antibacterial activity against Mycobacterium tuberculosis H37Rv assessed as inhibition of bacterial growth
# [10] = test system: Mycobacterium tuberculosis; format: functional, H37Rv; details: dose 40 mg/kg; route po; time 24 day
# [11] = Inhibition of Mycobacterium tuberculosis ArgJ assessed as inhibition constant by measuring change in blue shift by ANS dye based displacement assay
# [12] = test system: Mycobacterium tuberculosis; format: functional; details: H37Rv, 336 h, time 14 day
# [13] = test system: Mycobacterium tuberculosis; test: Antibacterial activity against Mycobacterium tuberculosis Erdman in acute Mtb infection BALB/c mouse model assessed as reduction in log10 CFU at 35 mg/kg, ip for 8 days; format: functional; details: time 8 day
# [14] = Solubility of the compound; format: physicochemical
# [15] = test system: Mycobacterium tuberculosis; test: Antibacterial activity against Mycobacterium tuberculosis in acute Mtb infection C57BL/6J mouse model assessed as reduction in log10 CFU in lungs at 350 mg/kg, po for 8 days; format: functional; details: time 8 day
# [16] = test system: Mycobacterium tuberculosis; format: functional, H37Rv; details: dose 200 mg/kg; route po; time 8 weeks
# [17] = Half life in Swiss-Webster mouse at 200 mg/kg, po via gavage measured after 4 hrs; format: ADME, organism-based; details: in vivo
# [18] = test system: Mycobacterium tuberculosis; format: functional, H37Rv; details: dose 200 mg/kg; route po; time 2 weeks
# in vitro = details: human, dermal fibroblasts
# Description: Cytotoxicity against human dermal fibroblasts assessed as cell growth inhibition treated for 48 hrs by resazurin dye based assay
# physchem = details: sodium phosphate buffer, pH 7.4
# [19] = Half life in mouse; format: ADME, organism-based; details: in vivo
# HepG2 [20] = test: cells; details: Homo sapiens, HepG2, 40 h
# Description: Cytotoxicity against human HepG2 cells treated for 40 hrs by Cell Titer Glo luminescence assay
# [21] = test system: Mycobacterium tuberculosis; format: functional, H37Rv; details: dose 25 mg/kg; route ig; time 3 weeks
# [22] = Inhibition of Mycobacterium tuberculosis ASADH expressed in Escherichia coli BL21
# HepG2 [23] = test: Cytotoxicity against human HepG2 cells by MTT assay; format: functional
# [24] = Cytotoxicity against African green monkey Vero cells by MTT assay; format: toxicity, cell-based; details: chlorocebus sabaeus
# [25] = test system: Mycobacterium tuberculosis; format: functional, H37Rv; details: dose 20-200 mg/kg; route po; time 4 weeks
# [26] = test system: Mycobacterium tuberculosis; format: functional; details: H37Rv, 168 h, time 7 day
# [27] = Protein binding in human plasma incubated for 5 hrs by LC-MS/MS analysis; format: ADME, cell-free; details: read-out: PPB (converted)
# [28] = test system: Mycobacterium tuberculosis; format: functional, H37Rv; details: dose 100 mg/kg; route po; time 4 weeks
# [29] = test system: Mycobacterium tuberculosis; format: functional; details: H37Rv, 120 h, time 5 day
# [30] = test system: Mycobacterium tuberculosis; test: Antibacterial activity against Mycobacterium tuberculosis Erdman in acute Mtb infection C57BL/6-IFN-gamma-tm1Ts KO mouse model assessed as reduction in log10 CFU in lungs at 50 mg/kg, po qd for 9 consecutive days; format: functional
# HepG2 [31] = test: Cytotoxicity against human HepG2 cells assessed as reduction in cell viability treated for 72 hrs by Cell Titer Glo assay; format: functional
# [32] = Half life in CD-1 mouse at 5 mg/kg, iv measured for 24 hrs; format: ADME, organism-based; details: in vivo
# [33] = Oral bioavailability in CD-1 mouse at 10 mg/kg measured for 24 hrs; format: ADME, organism-based; details: in vivo
# [34] = test system: Mycobacterium tuberculosis; test: Antibacterial activity against Mycobacterium tuberculosis Erdman (TMCC 107) in chronic Mtb infection BALB/c mouse model assessed as reduction in log10 CFU in lungs at 100 mg/kg, po via gavage upto 8 weeks; format: functional
# [35] = test system: Mycobacterium tuberculosis; test: Antibacterial activity against Mycobacterium tuberculosis Erdman (TMCC 107) in Mtb infection C3HeB/FeJ mouse model assessed as reduction in log10 CFU in lungs at 100 mg/kg, po via gavage upto 4 weeks; format: functional
# [36] = Solubility of the compound in PBS at pH 7.4 incubated for 24 hrs by LC-MS analysis; format: physicochemical
# [37] = Metabolic stability in CD-1 mouse liver microsomes assessed as half life measured for 5 to 40 mins by LC-MS/MS analysis; format: ADME, Microsome; details: time 5-40 min
# [38] = test system: Mycobacterium tuberculosis; format: functional, H37Rv; details: dose 10 mg/kg; route po; time 2 weeks
# [39] = test system: Mycobacterium tuberculosis; test: Antibacterial activity against Mycobacterium tuberculosis infected in macrophage assessed as inhibition of bacterial growth; format: functional, organism-based
# [40] = test system: Mycobacterium tuberculosis; format: functional, H37Rv; details: dose 400 mg/kg; route sc; time 3 weeks
# [41] = test system: Mycobacterium tuberculosis; format: functional; details: H37Rv, 336 h, time 14 day; remark: listed apart in the source
# [42] = test system: Mycobacterium tuberculosis; format: functional; details: H37Rv, time 6 day
# [43] = test system: Mycobacterium tuberculosis; format: functional, H37Rv; details: dose 18 mg/kg; time 8 day
# [44] = test system: Mycobacterium tuberculosis; format: functional; details: H37Rv
# [45] = test system: Mycobacterium tuberculosis; test: Antibacterial activity against Mycobacterium tuberculosis infected in macrophage assessed as inhibition of bacterial growth in presence of Ethionamide; format: functional, organism-based
# [46] = test system: Mycobacterium tuberculosis; test: Antibacterial activity against Mycobacterium tuberculosis Beijing strain in acute Mtb infection BALB/c mouse model assessed as reduction in log10 CFU in lungs at 50 mg/kg, po for 3 weeks; format: functional
# [47] = test system: Mycobacterium tuberculosis; test: Antibacterial activity against Mycobacterium tuberculosis in acute Mtb infection mouse model assessed as reduction in log10 CFU at 25 mg/kg treated for 3 weeks; format: functional
# [48] = Inhibition of bacterial DdlA; set-up: species or system Bacteria
# [49] = test system: Mycobacterium tuberculosis; format: functional; details: H37Rv, 336 h, time 14 day; remark: listed apart in the source
# [50] = test system: Mycobacterium tuberculosis; test: Antibacterial activity against Mycobacterium tuberculosis in acute Mtb infection mouse model assessed as reduction in log10 CFU at 200 mg/kg for 3 weeks; format: functional
# [51] = test system: Mycobacterium tuberculosis; format: functional; details: H37Rv, 336 h, time 14 day; remark: listed apart in the source
# [52] = test system: Mycobacterium tuberculosis; test: Antibacterial activity against Mycobacterium tuberculosis in acute Mtb infection mouse model assessed as reduction in log10 CFU at 200 mg/kg for 3 weeks in presence of Rifampicin; format: functional
# [53] = test system: Mycobacterium tuberculosis; test: Antibacterial activity against Mycobacterium tuberculosis in acute Mtb infection 129sv dehydropeptidase-1 KO mouse model assessed as reduction in log10 CFU administered twice daily for 6 days in presence of clavulanate; format: functional; details: time 6 day
# [54] = test system: Mycobacterium tuberculosis; test: Antibacterial activity against Mycobacterium tuberculosis in acute Mtb infection 129sv dehydropeptidase-1 KO mouse model assessed as reduction in log10 CFU administered orally twice daily for 6 days; format: functional; details: route po; time 6 day
# [55] = test system: Mycobacterium tuberculosis; test: Antibacterial activity against Mycobacterium tuberculosis in acute Mtb infection BALB/c mouse model assessed as reduction in log10 CFU treated for 6 days; format: functional; details: time 6 day
# [56] = test system: Mycobacterium tuberculosis; format: functional, THP-1; details: H37Rv
# [57] = test system: Mycobacterium tuberculosis; format: functional, THP-1; details: H37Rv; remark: listed apart in the source
# [58] = test system: Mycobacterium tuberculosis; test: Antibacterial activity against Mycobacterium tuberculosis in acute Mtb infection 129sv dehydropeptidase-1 KO mouse model assessed as reduction in log10 CFU administered subcutaneously twice daily for 6 days; format: functional; details: route sc; time 6 day
# Sequence of Voltage-gated inwardly rectifying potassium channel KCNH2 (Q12809 whole entry): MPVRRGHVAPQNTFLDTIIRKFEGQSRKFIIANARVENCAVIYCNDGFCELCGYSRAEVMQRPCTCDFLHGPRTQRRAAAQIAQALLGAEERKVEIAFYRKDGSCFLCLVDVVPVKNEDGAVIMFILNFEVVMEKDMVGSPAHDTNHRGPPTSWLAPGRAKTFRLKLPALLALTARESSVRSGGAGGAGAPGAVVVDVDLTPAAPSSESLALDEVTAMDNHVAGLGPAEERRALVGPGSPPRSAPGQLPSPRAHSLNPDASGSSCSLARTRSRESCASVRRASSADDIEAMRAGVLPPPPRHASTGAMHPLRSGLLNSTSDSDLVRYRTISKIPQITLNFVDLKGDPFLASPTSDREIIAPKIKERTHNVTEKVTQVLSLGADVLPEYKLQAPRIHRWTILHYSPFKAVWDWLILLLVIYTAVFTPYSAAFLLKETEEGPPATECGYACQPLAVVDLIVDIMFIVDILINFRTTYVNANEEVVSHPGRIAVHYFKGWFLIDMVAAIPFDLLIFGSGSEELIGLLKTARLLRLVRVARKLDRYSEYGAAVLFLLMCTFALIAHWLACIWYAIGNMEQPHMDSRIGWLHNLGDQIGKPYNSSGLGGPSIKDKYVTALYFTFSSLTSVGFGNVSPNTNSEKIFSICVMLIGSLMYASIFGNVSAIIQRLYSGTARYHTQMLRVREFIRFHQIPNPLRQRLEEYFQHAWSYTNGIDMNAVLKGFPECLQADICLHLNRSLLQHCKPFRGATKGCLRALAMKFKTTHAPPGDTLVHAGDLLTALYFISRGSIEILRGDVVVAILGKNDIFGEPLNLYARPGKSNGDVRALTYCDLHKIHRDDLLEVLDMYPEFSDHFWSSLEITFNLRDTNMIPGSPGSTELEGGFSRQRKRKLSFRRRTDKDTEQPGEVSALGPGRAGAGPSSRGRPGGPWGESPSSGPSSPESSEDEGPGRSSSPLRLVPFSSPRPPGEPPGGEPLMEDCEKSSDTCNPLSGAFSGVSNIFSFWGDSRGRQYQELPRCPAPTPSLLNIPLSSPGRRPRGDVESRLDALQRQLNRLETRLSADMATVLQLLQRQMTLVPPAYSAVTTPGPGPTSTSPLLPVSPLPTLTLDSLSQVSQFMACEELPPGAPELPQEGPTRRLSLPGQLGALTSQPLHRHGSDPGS
structure (smiles),measurement,setting,value
CCCCS(=O)(=O)Nc1ccc2cnn(C)c2c1,CC50,HepG2 [1],> 100 µM
same,Activity,[2],2.4 log10CFU
same,solubility kinetic,[3],> 550 µM
same,Activity,[4],3.5 log10CFU
same,CC50,[5],170 µM
same,solubility kinetic at 4.5 h,[6],175 µM
same,half-life,[7],10 min
same,IC50,[8],> 50 µM
same,MIC,[9],0.8 µM
O=C(Nc1cccc2c(=O)cc(-c3nnn[nH]3)oc12)c1ccc(OCCCCc2ccccc2)cc1,Activity,[10],0.5 log10CFU
same,Ki,[11],139 µM
same,MIC90,[9],10 µM
Cc1cc2oc(=O)cc(-c3cccc(N)c3)c2c(C)c1-c1ccc(CN2CCOCC2)cc1,MIC99,[12],0.24 µM
same,Activity,[13],2 log10CFU
O=S1(=O)C[C@H](O)[C@@H](N2CCN(c3ccc(F)cc3Cl)CC2)C1,solubility,[14],434 µM
same,CC50,HepG2 [1],> 100 µM
same,Activity,[15],1.4 log10CFU
same,MIC,[9],2.3 µM
CNC(=O)c1c(-c2ccc(O)cc2)oc2ccc(O)c(CN3CCCCC3)c12,Activity,[16],1.9 log10CFU
same,half-life,[17],60 min
same,Activity,[18],0.9 log10CFU
same,CC50 at 48 h,in vitro,> 100 µM
same,solubility kinetic at 24 h,physchem,74 µM
same,MIC90,[9],0.13 µM
CCNC(=N)NC(=O)Nc1c(CC)cccc1CC,half-life,[19],402 min
same,CC50,HepG2 [20],> 30 µM
O=C(Nc1nnc(C2CCCO2)o1)c1ccc([N+](=O)[O-])o1 (stereo not given),Activity,[21],1.7 log10CFU
same,IC50,[22],2 µM
same,CC50,HepG2 [23],> 218 µM
same,CC50,[24],> 218 µM
same,MIC,[9],1.7 µM
Cc1n[nH]c2ccc(NS(=O)(=O)CCCCF)cc12,Activity,[25],>2 log10CFU
same,MIC,[26],0.2 µM
same,half-life,[7],28 min
same,fraction unbound at 5 h,[27],0.23
same,Activity,[28],2 log10CFU
same,IC50,[8],> 50 µM
CCS(=O)(=O)N1N=Cc2ccc(Oc3ccc(C(F)(F)F)cc3/C=N/O)cc2B1O,MIC90,[29],0.09 µM
same,Activity,[30],3.7 log10CFU
same,CC50,HepG2 [31],> 100 µM
same,half-life,[32],210 min
same,bioavailability,[33],53%
same,Activity,[34],1.7 log10CFU
same,Activity,[35],1.5 log10CFU
O=C(NCCC(F)(F)F)c1ccc(-c2noc(C3CC3)n2)cc1,solubility at 24 h,[36],30 µM
same,half-life,[37],19 min
same,Activity,[38],>2 log10CFU
same,EC50,[39],0.072 µM
CSC1=C(C(=O)[O-])N2C(=O)[C@H]([C@@H](C)O)[C@H]2[C@H]1C.[Na+],Activity,[40],<2 log10CFU
same,MIC90,[41],0.9 µM
CCCCS(=O)(=O)Nc1ccc2[nH]ncc2c1,MIC,[42],1.2 µM
same,Activity,[43],2 log10CFU
O=C(CCC(F)(F)F)N1CCC2(CC1)CC(c1ccccc1)=NO2,half-life,[19],19 min
same,MIC,[44],0.3 µM
same,EC50,[45],0.02 µM
same,Activity,[46],1 log10CFU
OC1(c2ccc(OC(F)F)cc2)C[N+](c2ccccc2)=C2CCCCN21.[Br-] (stereo not given),CC50,HepG2 [1],263 µM
same,Activity,[47],1.2 log10CFU
same,IC50,[48],6.2 µM
same,MIC,[9],1.1 µM
C[C@@H](O)[C@H]1C(=O)N2C(C(=O)[O-])=C(SC3Cn4cnc[n+]4C3)[C@H](C)[C@H]12 (stereo not given in full) [BIAPENEM],half-life,[19],17.4 min
same,MIC90,[49],7.1 µM
same,Activity,[50],5.3 log10CFU
same,MIC90,[51],1.7 µM
same,Activity,[52],8.6 log10CFU
C[C@@H](O)[C@H]1C(=O)N2C(C(=O)O)=C(S[C@@H]3CN[C@H](C(=O)N(C)C)C3)[C@H](C)[C@H]12 [MEROPENEM],half-life,[19],27.6 min
same,MIC90,[12],10 µM
same,Activity,[40],<2 log10CFU
same,Activity,[53],1.7 log10CFU
CO[C@H]1CCC[C@H]2C1=C(C(=O)OC(C)OC(=O)OC1CCCCC1)N1C(=O)[C@H]([C@@H](C)O)[C@@H]21 (stereo not given in full) [SANFETRINEM CILEXETIL],Activity,[54],1.4 log10CFU
CO[C@H]1CCC[C@H]2C1=C(C(=O)[O-])N1C(=O)[C@H]([C@@H](C)O)[C@@H]21.[Na+] [SANFETRINEM SODIUM],Activity,[55],1.7 log10CFU
same,MIC90,[56],5.6 µM
same,MIC,[57],5 µM
same,Activity,[58],1.7 log10CFU
same,MIC,[9],5 µM
